The structures appear in SMILES notation.

Common to all, as to experiment: Bliss excess, mean over the matrix (fraction); higher = more synergy
The test system of experiment [1] is BHT-101 (Thyroid Gland Carcinoma). The gist of the method: (§1)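 After 24 hours at 37°C and 5% CO2 in 1536-well plates, cells in DMEM/F12 or RPMI plus 10% FBS received two-drug dose matrices for 72 hours. Viability came from CellTiter-Glo 2.0 luminescence and was scaled as inhibition, anchored at 0 by vehicle wells and at 1 by blank wells. Combination Emax is taken as the second-highest inhibition in the matrix, and Bliss excess as the observed combination effect less EA + EB − EA·EB, with EA and EB the single-agent effects.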

Experiment [2] has as its system C-33-A (Cervical Carcinoma). The gist of the method: as §1
The test system of experiment [3] is CPC-N (Small Cell Lung Carcinoma). In outline: as §1
Experiment [4] concerns ES6 (Ewing's Sarcoma). In outline:
as §1

Experiment [5] has as its system KALS-1 (Glioblastoma). The gist of the method:
as §1

In experiment [6] the test system is LS-1034 (Colorectal Carcinoma). The gist of the method: as §1
For experiment [7], the system named is MDA-MB-415 (Breast Carcinoma). In outline: as §1
Experiment [8] deals with MM1S (Plasma Cell Myeloma). The gist of the method:
as §1

The subject of experiment [9] is MOLP-8 (Plasma Cell Myeloma). The gist of the method: as §1
In experiment [10] the test system is MS-1 (Small Cell Lung Carcinoma). The gist of the method:
as §1

Experiment [11] concerns NCI-H1876 (Small Cell Lung Carcinoma). In outline: as §1
Experiment [12] deals with NCI-H1963 (Small Cell Lung Carcinoma). The gist of the method:
as §1

Experiment [13] has as its system NCI-H3118 (Head and Neck Carcinoma). In outline:
as §1

The test system of experiment [14] is OVCAR-3 (Ovarian Carcinoma). In outline:
as §1

Experiment [15] concerns PA-TU-8988T (Pancreatic Carcinoma). In outline: as §1
The test system of experiment [16] is Raji (Burkitt's Lymphoma). The gist of the method: as §1
For experiment [17], the system named is SNU-C2B (Colorectal Carcinoma). In outline: as §1
For experiment [18], the system named is T84 (Colorectal Carcinoma). The gist of the method:
as §1

Experiment [19] relates to TUR (Acute Myeloid Leukemia). The gist of the method:
as §1

Experiment [20] concerns UACC-257 (Melanoma). In outline:
as §1

Take `CC(=O)c1c(C)c2cnc(Nc3ccc(N4CCNCC4)cn3)nc2n(C2CCCC2)c1=O` [Palbociclib] + CC1(C)CCC(CN2CCN(c3ccc(C(=O)NS(=O)(=O)c4ccc(NCC5CCOCC5)c([N+](=O)[O-])c4)c(Oc4cnc5[nH]ccc5c4)c3)CC2)=C(c2ccc(Cl)cc2)C1 [Venetoclax] (first compound max 10 µM, 7x7, partner max 1 µM): the Bliss excess in experiment [1] was -0.0607; in [2], -0.0474; in experiment [3] it was -0.0394; in experiment [4], -0.0387; in [5], -0.0396; in [6], -0.12. Further, the Bliss excess in experiment [7] is -0.0338; in experiment [8], 0.0353; in experiment [9], 0.0278; in experiment [10], -0.0827; in [11] it was 0.0162; in [12], 0.226. Further, the Bliss excess in [13] is -0.0142; in experiment [14] it was -0.0356; in experiment [15] it was -0.0333; in [16] it was 0.0634; in experiment [17] it was -0.036; in experiment [18], -0.0556. The figures for the Bliss excess in experiment [19] and in [20] were 0.0153 and -0.0479, respectively.

In the case of `CN(CCO)CC[C@H](CSc1ccccc1)Nc1ccc(S(=O)(=O)NC(=O)c2ccc(N3CCC([C@@H](O)c4ccccc4-c4ccc(Cl)cc4)CC3)cc2)cc1S(=O)(=O)C(F)(F)F` [AZD4320] + Cn1cnc2c(F)c(Nc3ccc(Br)cc3Cl)c(C(=O)NOCCO)cc21 [Selumetinib] (first compound max 1 µM, 7x7, partner max 3 µM), the Bliss excess in experiment [1] is 0.0147; in experiment [2], 0.0597; in [3], -0.0185; in experiment [4] it was -0.0326; in experiment [5], 0.0924; in experiment [6], -0.0454. Also, the Bliss excess in experiment [7] was -0.0181; in experiment [8] it was 0.0799; in experiment [9] it was 0.0614; in experiment [10] it was 0.0229; in experiment [11], 0.0752; in experiment [12], 0.0204. In addition, the Bliss excess came to 0.0807 in [13]; 0.0276 in [14]; 0.0561 in experiment [15]; 0.0188 in experiment [16]; 0.0528 in [17]; 0.0142 in experiment [18]. The values for the Bliss excess in [19] and in experiment [20] were 0.0029 and 0.0815, respectively.

Take `NC1(C(=O)N[C@@H](CCO)c2ccc(Cl)cc2)CCN(c2ncnc3[nH]ccc23)CC1` [Capivasertib] + C[C@@H]1COCCN1C2=NC(=NC(=C2)C3(CC3)[S@](=N)(=O)C)C4=C5C=CNC5=NC=C4 [AZD6738] (first compound max 10 µM, 7x7, partner max 10 µM): the Bliss excess is -0.0345 in experiment [1]; -0.065 in experiment [2]; -0.0117 in experiment [3]; -0.0479 in [4]; -0.074 in experiment [5]; -0.0782 in experiment [6]. Moreover, the Bliss excess in [7] is -0.0516; in experiment [8], 0.0201; in experiment [9], 0.0357; in [10], -0.0465; in [11] it was 0.0649; in [12] it was -0.0142. The Bliss excess is -0.0807 in experiment [13]; -0.0169 in experiment [14]; -0.0372 in experiment [15]; 0.0187 in [16]; 0.0158 in [17]; -0.111 in [18]. Further, the Bliss excess was -0.0398 in experiment [19] and 0.0164 in experiment [20].

Consider `CC1(C)CCC(CN2CCN(c3ccc(C(=O)NS(=O)(=O)c4ccc(NCC5CCOCC5)c([N+](=O)[O-])c4)c(Oc4cnc5[nH]ccc5c4)c3)CC2)=C(c2ccc(Cl)cc2)C1` [Venetoclax] + C[C@@H](Nc1cc(F)cc(F)c1)c1cc(C(=O)N(C)C)cc2c(=O)cc(N3CCOCC3)oc12 [AZD8186] (first compound max 1 µM, 7x7, partner max 3 µM), for which the Bliss excess in experiment [1] was 0.0031; in experiment [2] it was -0.0523; in experiment [3] it was 0.0256; in [4] it was -0.0661; in experiment [5], 0.0015; in experiment [6], -0.0318. In addition, the Bliss excess in [7] was -0.0128; in [8] it was 0.0377; in experiment [9], 0.0293; in [10] it was 0.0357; in experiment [11], -0.0181; in [12], 0.21. The Bliss excess in experiment [13] is -0.0439; in [14], -0.0062; in experiment [15], 0.0383; in experiment [16] it was 0.0114; in experiment [17], -0.0408; in experiment [18], -0.0284. The Bliss excess in experiment [19] was 0.0157; in experiment [20] it was -0.0538.

Take `CC1(C)CCC(CN2CCN(c3ccc(C(=O)NS(=O)(=O)c4ccc(NCC5CCOCC5)c([N+](=O)[O-])c4)c(Oc4cnc5[nH]ccc5c4)c3)CC2)=C(c2ccc(Cl)cc2)C1` [Venetoclax] + CCN(CCO)CCCOc1ccc2c(Nc3cc(CC(=O)Nc4cccc(F)c4)[nH]n3)ncnc2c1 [AZD2811] (first compound max 1 µM, 7x7, partner max 1 µM): the Bliss excess in experiment [1] is -0.0256; in [2], -0.0928; in experiment [3] it was -0.048; in experiment [4], -0.0166; in experiment [5], 0.0005; in experiment [6], -0.0328. Moreover, the Bliss excess in experiment [7] is -0.0081; in [8], 0.0157; in experiment [9], 0.025; in experiment [10] it was -0.045; in experiment [11] it was 0.129; in experiment [12], 0.0196. In addition, the Bliss excess in [13] was -0.0097; in experiment [14], -0.0087; in experiment [15] it was -0.0549; in experiment [16], -0.016; in [17], 0.0098; in [18] it was -0.0249. The Bliss excess in experiment [19] was 0.0132; in [20], -0.0105.

With `CN(CCO)CC[C@H](CSc1ccccc1)Nc1ccc(S(=O)(=O)NC(=O)c2ccc(N3CCC([C@@H](O)c4ccccc4-c4ccc(Cl)cc4)CC3)cc2)cc1S(=O)(=O)C(F)(F)F` [AZD4320] + C[C@@H]1COCCN1C2=NC(=NC(=C2)C3(CC3)[S@](=N)(=O)C)C4=C5C=CNC5=NC=C4 [AZD6738] (first compound max 1 µM, 7x7, partner max 10 µM), the Bliss excess is -0.0067 in experiment [1]; -0.0158 in experiment [2]; 0.0146 in [3]; 0.015 in [4]; -0.0784 in experiment [5]; -0.037 in experiment [6]. The Bliss excess in experiment [7] is -0.0749; in [8], -0.0008; in [9] it was 0.0086; in [10], -0.0085; in experiment [11], 0.0189; in experiment [12] it was 0.0129. Moreover, the Bliss excess in [13] is 0.0076; in experiment [14], -0.0231; in experiment [15], -0.0006; in experiment [16], 0.0056; in experiment [17], -0.0292; in [18] it was -0.0344. The Bliss excess is -0.014 in experiment [19] and -0.0663 in [20].
